US11180500B2, “Derivatives of relebactam and uses thereof” (ARIXA PHARMACEUTICALS, INC., priority 2018, dated 2021)

Assay: Oral bioavailability in Beagle dogs (plasma concentration of relebactam)
Type: in vivo
Details: male Beagle dogs, IV bolus, mean
Protocol: The oral bioavailability of certain relebactam prodrugs provided by the present disclosure in Beagle dogs was evaluated.
Dosing formulations are prepared on the day of dosing. Intravenous formulations are prepared under aseptic conditions, sterile filtered, and brought to room temperature prior to dosing. The intravenous formulation included relebactam at a final concentration of 2.8 mg/mL in PBS at pH 7.5.
The formulations were administered to male Beagle dogs weighing about 10 kg. The animals were maintained in accordance with the Guide for the Care and Use of Laboratory Animals, National Research Council, The National Academies Press, Washington, DC, 2011.
The dogs received either an IV bolus dose of 9.9 mg/kg, or a peroral dose of 22 mg/kg (Compound 87) or 20.0 mg/kg (Compound 88). […]
The plasma concentration of relebactam was measured at intervals following administration. […] The relebactam concentration was determined using LC/MS/MS.
The area under the concentration vs. time curves (AUC) was calculated using the linear/log trapezoidal method with linear interpolation. The percent oral bioavailability (% F) of relebactam was determined by comparing the AUC following oral administration with the AUC following IV administration on a dose normalized basis.

AUC(0-inf) (dog, nominal dose 10.0 mg/kg (administered 9.88 mg/kg)): 29400 ng·h/mL
AUC0-inf/D (relebactam-equivalent dose 9.88 mg/kg): 2974
SMILES: O=C(NC1CCNCC1)[C@@H]1CC[C@@H]2CN1C(=O)N2OS(=O)(=O)O [relebactam]
